# Measurements published in patent publication US7927799B2, “Inhibitors of PGHS-2Transactivator activity” (Ordway Research Institute, priority 2005, dated 2011).
# Assays:
# PGE2 production = PGE2 production in cells by ELISA; format: cell-based, human; details: DU145 and UM-SCC-22B cells, 12 h; PMA 100 nM, NS398, indomethacin, PD98059 each 10 μM
# Method: Cells were plated in 48-well culture dishes and treated or without PMA (100 nM), NS398 (10 μM), indomethacin (10 μM) or PD98059 (10 μM) for 12 h. Cells were transferred to 200 μl PBS for the last 30 min. Samples were then collected and subjected to quantitative analysis of PGE2 by ELISA. The results are shown as mean±SD of results from three representative studies.
# [1] = test system: PGHS-2 protein expression; assay: PGHS-2 protein by immunoblotting of nuclear/cytosol proteins; format: cell-based, human; details: 12 h, PMA 100 nM; for PGHS-2 protein / PGHS-2 expression: confluent UM-SCC-22B cells, PD98059 10 μM, SB203580 10 μM, PDTC 100 μM
# Method: A: Effects of PKC activation or signaling pathway inhibitors on PGHS-2 expression. UM-SCC 22B cells were allowed to grow to confluence in 10 cm culture dishes, and then received either control medium (lane 1) or medium containing PMA (lane 2, 100 nM), PD98059 (PD, lane 3, 10 μM), SB203580 (SB, lane 4, 10 μM) or PDTC (lane 5, 100 μM) for 16 h. Cell monolayers were harvested and 40 μg nuclear protein were subjected to immunoblotting with anti-human PGHS-2 (upper panel) or anti-pMAPK (pERK1/2, lower panel). […] Results shown are the means±SD from three similar experiments.
# Fractionation of cells in a microfuge and preparation of nucleoproteins was by a previously reported method (Lin et al., 2002). Nuclear extracts were prepared by resuspension of the crude nuclear fraction in high salt buffer (420 mN NaCl, 20% glycerol) at 4° C. with rocking for 1 h. The supernatants were then collected after subsequent centrifugation at 4° C. and 13,000 rpm for 10 min.
# PGHS-2 promoter = assay: Chromatin immunoprecipitation (ChIP) of PGHS-2 binding to the PGHS-2 promoter; format: cell-based, human; details: 12 h, PMA 100 nM, PDTC 100 μM, PD98059 10 μM
# Method: (§1) A: ChIP was performed with PGHS-2 antibody, using UM-SCC-22B (22B) cells constitutively expressing PGHS-2, and in the absence (Con) or presence of PMA (100 nM), PDTC (100 μM) or PD98059 (PD, 10 μM) for 12 h. Input and immunoprecipitated (IP) DNA was amplified by using primers for MDM2, PGHS-2 promoter and PGHS-2 ORF, and the amplified DNAs were then separated by electrophoresis and scanned with the VersaDOC™ Imaging System.
# (§2) In ChIP experiments in prostate cancer cells, using monoclonal anti-PGHS-2, we compared the amount of immunoprecipitable PGHS-2 promoter sequence with the amount of input DNA for each sample; a PGHS-2 ORF primer served as a negative control. […] PGHS-2 also bound to the promoter region of MDM2.
# Chromatin immunoprecipitation was performed as described by Luo et al. (1998) and Braunstein et al. (1996). Aliquots of cells (6 ×10^6) in monolayers were treated with 1% formaldehyde for 15 min at room temperature to effect crosslinking. Monolayers were then washed twice with PBS. Extracts were prepared by scraping cells in 1 ml of buffer (150 mM NaCl, 1% NP-40, 0.5% DOC, 0.1% SDS, 50 mM Tris [pH 8.0], 5 mM EDTA) that contained the protease inhibitors leupeptin (10 µg/ml) and pepstatin A (10 µg/ml), phosphatase inhibitors (50 mM NaF and 0.2 mM sodium orthovanadate) and the deacetylase inhibitor, trichostatin A, 5 µM (Calbiochem, San Diego, Calif.). Cell lysates were sonicated to yield chromatin fragments of approximately 600 bp, as assessed by agarose gel electrophoresis. Immunoprecipitation was carried out with anti-p53 (Santa Cruz, Santa Cruz, Calif.), anti-phosphoSer392-p53 (Cell Signaling, Beverly, Mass.), or anti-acetylated p53 (Upstate Biotechnology, Lake Placid, N.Y.). For studies of the PGHS-2 promoter, anti-PGHS-2 (Cayman) was used. […] Relative levels of DNA were determined with QuantifyOne software (Bio-Rad Laboratories, Inc., Hercules, Calif.).
# human PGHS-2 promoter = assay: PGHS-2 promoter (-831/+123) luciferase reporter assay; format: cell-based; details: UM-SCC-22B cells, 12 h; PMA 100 nM, PD98059 10 μM, PDTC 100 μM, SB203580 10 μM
# Method: UM-SCC-22B cells were transfected with the −831/+123 PGHS-2 promoter constructs fused to a luciferase reporter or the luciferase reporter with the SV 40 promoter (pGL2 promoter).
# Aliquots of cells were treated with PMA (100 mM), PD98059 (10 μM), PDTC (100 μM), or SB203580 (10 μM) for 12 h. Cultures were co-transfected with β-galactosidase reporter plasmids, and luciferase activity, corrected for β-galactosidase activity, measured and expressed as the mean±SD of triplicate culture determinations from three experiments.
# To assess PGHS-2 promoter activity in UM-SCC-22B cells, the proximal −831/+123 base pairs of the human PGHS-2 promoter were fused to a luciferase reporter (pGHS-2 LUC) (Cao et al., 1999). This PGHS-2 reporter or SV40 LUC (pGL2 promoter) were transfected into near confluent UM-SCC-22B tumor cells.
# MDM2 promoter = assay: Chromatin immunoprecipitation (ChIP) of PGHS-2 binding to the MDM2 promoter; format: cell-based, human; details: 12 h, PDTC 100 μM, PD98059 10 μM
# Method: as §1, §2
# Chromatin immunoprecipitation was performed as described by Luo et al. (1998) and Braunstein et al. (1996). Aliquots of cells (6 ×10^6) in monolayers were treated with 1% formaldehyde for 15 min at room temperature to effect crosslinking. Monolayers were then washed twice with PBS. […] Cell lysates were sonicated to yield chromatin fragments of approximately 600 bp, as assessed by agarose gel electrophoresis. […] Relative levels of DNA were determined with QuantifyOne software (Bio-Rad Laboratories, Inc., Hercules, Calif.).
# [2] = test system: PGHS-2 / c-Fos association; assay: Co-immunoprecipitation of nuclear PGHS-2 with c-Fos; format: cell-based, human; details: UM-SCC-22B cells, PMA 100 nM, 12 h
# Method: (§3) Confluent UM-SCC-22B (22B) cells were treated with PMA, 100 nM, or solvent alone for 12 h. Cell nuclei were prepared (Lin et al., 1999) and immunoprecipitated with antibody to PGHS-2. Immunoprecipitated proteins were separated by gel electrophoresis and immunoblotted with antibody to c-Fos, MDM2 or p300. Shown are representative immunoblots from 3 similar experiments. Co-localization of c-Fos with PGHS-2 is seen in nuclei of UM-SCC-22B cells.
# (§4) The techniques used were those previously described by our laboratory (Lin et al., 1999). In brief, nucleoproteins were separated on discontinuous SDS-PAGE (9% gels) and then transferred by electroblotting to Immobilon membranes (Millipore, Bedford, Mass.). After blocking with 5% milk in Tris-buffered saline containing 0.1% Tween, the membranes were incubated with various antibodies overnight. Secondary antibodies were either goat anti-rabbit IgG (1:1000) or rabbit anti-mouse IgG (1:1000) (Dako, Carpenteria, Calif.), depending upon the origin of the primary antibody. Immunoreactive proteins were detected by chemiluminescence.
# [3] = test system: PGHS-1 protein expression; assay: PGHS-1 protein by immunoblotting; format: cell-based, human; details: PMA 100 nM, 12 h; cancer cell lines
# Method: FIG. 2. Expression of PGHS-2 in ECV 304, DU145 and UM-SCC-22B (22B) cells A: Constitutive expression of PGHS-2 protein in ECV 304, DU145 and UM-SCC-22B cells. Cells were grown to confluence in 10 cm dishes. Monolayers were treated with or without PMA (100 nM) for 12 h; nuclear proteins were then harvested and subjected to immunoblotting with antihuman PGHS-2 (panel 1) or -PGHS-1 (panel 2).
# as §4
# [4] = test system: PGHS-2 / p300 association; assay: Co-immunoprecipitation of nuclear PGHS-2 with p300; format: cell-based, human; details: UM-SCC-22B cells, PMA 100 nM, 12 h
# Method: as §3, §4
# PGHS-2 mRNA = PGHS-2 mRNA levels by RT-PCR; format: cell-based, human; details: PMA 100 nM, 8 h; ECV 304, DU145 and UM-SCC-22B cells
# Method: B: PGHS-2 mRNA levels in ECV 304, DU145 and UM-SCC-22B cells. Confluent cells were treated with or without PMA (100 nM) for 8 h. Total RNA samples were harvested and subjected to RT-PCR using PGHS-2 or GAPDH primers (top and bottom panels, respectively).
# [5] = test system: PGHS-2 / MDM2 association; assay: Co-immunoprecipitation of nuclear PGHS-2 with MDM2; format: cell-based, human; details: UM-SCC-22B cells, PMA 100 nM, 12 h
# Method: as §3, §4
binding of PGHS-2 to the PGHS-2 promoter (PGHS-2 promoter),binding of PGHS-2 to the MDM2 promoter (MDM2 promoter),Structure (SMILES),PGE2 production (PGE2 production),PGHS-2 protein / PGHS-2 expression [1],PGHS-2 promoter activity (luciferase) (human PGHS-2 promoter),further results
–,–,CS(=O)(=O)Nc1ccc([N+](=O)[O-])cc1OC1CCCCC1 [NS398],decreased PGE2 production in cancer cells to basal levels,–,–,–
inhibited,inhibited,COc1cccc(-c2cc(=O)c3ccccc3o2)c1N [PD98059],decreased PGE2 production in cancer cells to basal levels,decreased to very low levels,inhibited,–
inhibited,inhibited,"S=C(S)N1CCCC1 [PDTC, pyrrolidine dithiocarbamate]",–,minimally inhibited,inhibited,–
–,–,C[S+]([O-])c1ccc(-c2nc(-c3ccncc3)c(-c3ccc(F)cc3)[nH]2)cc1 (stereo not drawn) [SB203580],–,minimally inhibited,inhibited,–
–,–,COc1ccc2c(c1)c(CC(=O)O)c(C)n2C(=O)c1ccc(Cl)cc1 [indomethacin],decreased PGE2 production in cancer cells to basal levels,–,–,–

Structure (SMILES),binding of PGHS-2 to the PGHS-2 promoter (PGHS-2 promoter),binding of PGHS-2 to the MDM2 promoter (MDM2 promoter),PGE2 production (PGE2 production),PGHS-2 protein / PGHS-2 expression [1],PGHS-2 promoter activity (luciferase) (human PGHS-2 promoter),further results
"CCCCCCCCCCCCCC(=O)O[C@@H]1[C@@H](C)[C@@]2(O)[C@@H](C=C(CO)C[C@]3(O)C(=O)C(C)=C[C@@H]23)[C@@H]2C(C)(C)[C@]12OC(C)=O [PMA, phorbol-12-myristate-13-acetate]",minimal increases,–,did not significantly increase,increase,only negligibly increased,"nuclear association of PGHS-2 with c-Fos [2]: marked increase; cytosolic PGHS-2 [1]: increased; abundance of PGHS-2 protein in nuclei ([1]; ECV 304, DU145 and UM-SCC-22B cells): increased; abundance of PGHS-1 [3]: no effect; nuclear association of PGHS-2 with p300 [4]: little increase; abundance of PGHS-2 mRNA (PGHS-2 mRNA): increased; nuclear association of PGHS-2 with MDM2 [5]: little increase"
